Measured values taken from patent publication US9522914B2, “Azole derivative” (TAISHO PHARMACEUTICAL CO., LTD, priority 2011, dated 2016).

Molecular target: Human V1b receptor (Homo sapiens (Human), UniProt P47901)
Assay: Binding Test for V1b Receptor ([3H]AVP, crude membrane preparation of 293FT cells)
Conditions: inhibition of [3H]AVP binding (0.4 to 1 nmol/L), room temperature, 60 minutes
Procedure, shortened: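 Crude membranes from 293FT cells transiently expressing human V1b, incubated with [3H]AVP (0.4 to 1 nmol/L) and compound (0.01 nmol/L–1 μmol/L final) in Tris pH 7.4 with MgCl2 and 0.1% BSA, 60 min at room temperature. Bound label collected by filtration. Nonspecific binding defined with unlabeled AVP; IC50 from dose-response curve.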

Human V1b receptor, sequence (P47901 whole entry): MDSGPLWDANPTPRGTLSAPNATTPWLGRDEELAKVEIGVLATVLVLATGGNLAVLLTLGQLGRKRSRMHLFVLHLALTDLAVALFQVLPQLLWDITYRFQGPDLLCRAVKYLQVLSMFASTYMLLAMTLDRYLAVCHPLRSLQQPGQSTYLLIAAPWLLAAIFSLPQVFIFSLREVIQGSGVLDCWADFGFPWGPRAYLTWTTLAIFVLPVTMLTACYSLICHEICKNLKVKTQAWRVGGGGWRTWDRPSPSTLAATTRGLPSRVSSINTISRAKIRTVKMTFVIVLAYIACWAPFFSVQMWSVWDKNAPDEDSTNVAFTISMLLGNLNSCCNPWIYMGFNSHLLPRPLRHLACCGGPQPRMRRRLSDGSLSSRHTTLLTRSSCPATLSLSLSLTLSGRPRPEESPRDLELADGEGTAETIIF

Row | SMILES | IC50
1 | COc1cccc(-n2c(CC(=O)NC(C)(C)C)nn(-c3ccc(CCN4C5CCC4COC5)cn3)c2=O)c1 [Example D-09, N-tert-butyl-2-[4-(3-methoxyphenyl)-1-{5-[2-(3-oxa-8-azabicyclo[3.2.1]oct-8-yl)ethyl]pyridin-2-yl}-5-oxo-4,5-dihydro-1H-1,2,4-triazol-3-yl]acetamide] | 10 to 100 nM
2 | COc1cc(-n2c(CC(=O)NC(C)(C)C)nn(-c3ccc(CCN4C5CCC4COC5)cc3)c2=O)ccc1F [Example D-10, N-tert-butyl-2-[4-(4-fluoro-3-methoxyphenyl)-1-{4-[2-(3-oxa-8-azabicyclo[3.2.1]oct-8-yl)ethyl]phenyl}-5-oxo-4,5-dihydro-1H-1,2,4-triazol-3-yl]acetamide] | 7.1 nM
3 | COc1cc(-n2c(CC(=O)NC(C)(C)C)nn(-c3ccc(CCN4CCOCC4)cn3)c2=O)ccc1F [Example D-11, N-tert-butyl-2-[4-(4-fluoro-3-methoxyphenyl)-1-{5-[2-(morpholin-4-yl)ethyl]pyridin-2-yl}-5-oxo-4,5-dihydro-1H-1,2,4-triazol-3-yl]acetamide] | 10 to 100 nM
4 | COc1cc(-n2c(CC(=O)NC(C)(C)C)nn(-c3ccc(CCN4C5CCC4COC5)cn3)c2=O)ccc1F [Example D-12, N-tert-butyl-2-[4-(4-fluoro-3-methoxyphenyl)-1-{5-[2-(3-oxa-8-azabicyclo[3.2.1]oct-8-yl)ethyl]pyridin-2-yl}-5-oxo-4,5-dihydro-1H-1,2,4-triazol-3-yl]acetamide] | 7 nM
5 | CC(C)(C)NC(=O)Cc1nn(-c2ccc(CCN3CCOCC3)cn2)c(=O)n1-c1cccc(Cl)c1 [Example D-15, N-tert-butyl-2-[4-(3-chlorophenyl)-1-{5-[2-(morpholin-4-yl)ethyl]pyridin-2-yl}-5-oxo-4,5-dihydro-1H-1,2,4-triazol-3-yl]acetamide] | 10 to 100 nM
6 | CC(C)(C)NC(=O)Cc1nn(-c2ccc(CCN3C4CCC3COC4)cn2)c(=O)n1-c1cccc(Cl)c1 [Example D-16, N-tert-butyl-2-[4-(3-chlorophenyl)-1-{5-[2-(3-oxa-8-azabicyclo[3.2.1]oct-8-yl)ethyl]pyridin-2-yl}-5-oxo-4,5-dihydro-1H-1,2,4-triazol-3-yl]acetamide] | 10 to 100 nM
7 | CC(C)NC(=O)Cc1nn(-c2ccc(CC(C)N3CCOCC3)cc2)c(=O)n1-c1cccc(Cl)c1 [Example D-17, 2-[4-(3-chlorophenyl)-1-{4-[2-(morpholin-4-yl)propyl]phenyl}-5-oxo-4,5-dihydro-1H-1,2,4-triazol-3-yl]-N-(propan-2-yl)acetamide] | 3.9 nM
8 | CC(C)NC(=O)Cc1nn(-c2ccc(CC(C)N3CCOCC3)cn2)c(=O)n1-c1cccc(Cl)c1 [Example D-19, 2-[4-(3-chlorophenyl)-1-{5-[2-(morpholin-4-yl)propyl]pyridin-2-yl}-5-oxo-4,5-dihydro-1H-1,2,4-triazol-3-yl]-N-(propan-2-yl)acetamide] | 10 to 100 nM
9 | CC(C)NC(=O)Cc1nn(-c2ccc(CCN3CCOCC3)c(F)c2)c(=O)n1-c1cccc(Cl)c1 [Example D-20, 2-[4-(3-chlorophenyl)-1-{3-fluoro-4-[2-(morpholin-4-yl)ethyl]phenyl}-5-oxo-4,5-dihydro-1H-1,2,4-triazol-3-yl]-N-(propan-2-yl)acetamide] | 20 nM
10 | CC(C)NC(=O)Cc1nn(-c2ccc(CCN3C4CCC3COC4)c(F)c2)c(=O)n1-c1cccc(Cl)c1 [Example D-21, 2-[4-(3-chlorophenyl)-1-{3-fluoro-4-[2-(3-oxa-8-azabicyclo[3.2.1]oct-8-yl)ethyl]phenyl}-5-oxo-4,5-dihydro-1H-1,2,4-triazol-3-yl]-N-(propan-2-yl)acetamide] | 7.5 nM
11 | COc1cc(-n2nc(CC(=O)NC(C)C)n(-c3cccc(Cl)c3)c2=O)ccc1CCN1CCOCC1 [Example D-22, 2-[4-(3-chlorophenyl)-1-{3-methoxy-4-[2-(morpholin-4-yl)ethyl]phenyl}-5-oxo-4,5-dihydro-1H-1,2,4-triazol-3-yl]-N-(propan-2-yl)acetamide] | 12 nM
12 | COc1cc(-n2nc(CC(=O)NC(C)C)n(-c3cccc(Cl)c3)c2=O)ccc1CCN1C2CCC1COC2 [Example D-23, 2-[4-(3-chlorophenyl)-1-{3-methoxy-4-[2-(3-oxa-8-azabicyclo[3.2.1]oct-8-yl)ethyl]phenyl}-5-oxo-4,5-dihydro-1H-1,2,4-triazol-3-yl]-N-(propan-2-yl)acetamide] | 3.3 nM
13 | CC(C)NC(=O)Cc1nn(-c2ccc(CCN3C4CCC3COC4)cc2F)c(=O)n1-c1cccc(Cl)c1 [Example D-24, 2-[4-(3-chlorophenyl)-1-{2-fluoro-4-[2-(3-oxa-8-azabicyclo[3.2.1]oct-8-yl)ethyl]phenyl}-5-oxo-4,5-dihydro-1H-1,2,4-triazol-3-yl]-N-(propan-2-yl)acetamide] | 10 to 100 nM
14 | COc1cc(CCN2C3CCC2COC3)ccc1-n1nc(CC(=O)NC(C)C)n(-c2cccc(Cl)c2)c1=O [Example D-25, 2-[4-(3-chlorophenyl)-1-{2-methoxy-4-[2-(3-oxa-8-azabicyclo[3.2.1]oct-8-yl)ethyl]phenyl}-5-oxo-4,5-dihydro-1H-1,2,4-triazol-3-yl]-N-(propan-2-yl)acetamide] | 100 to 1000 nM
15 | CC(C)NC(=O)Cc1nn(-c2ccc(CCN3CCOCC3)cc2)c(=O)n1-c1ccc(F)c(Cl)c1 [Example D-26, 2-[4-(3-chloro-4-fluorophenyl)-1-{4-[2-(morpholin-4-yl)ethyl]phenyl}-5-oxo-4,5-dihydro-1H-1,2,4-triazol-3-yl]-N-(propan-2-yl)acetamide] | 4.4 nM
16 | CC(C)NC(=O)Cc1nn(-c2ccc(CCN3C4CCC3COC4)cc2)c(=O)n1-c1ccc(F)c(Cl)c1 [Example D-27, 2-[4-(3-chloro-4-fluorophenyl)-1-{4-[2-(3-oxa-8-azabicyclo[3.2.1]oct-8-yl)ethyl]phenyl}-5-oxo-4,5-dihydro-1H-1,2,4-triazol-3-yl]-N-(propan-2-yl)acetamide] | 5.3 nM
17 | CC(C)NC(=O)Cc1nn(-c2ccc(CCN3CCOCC3)cn2)c(=O)n1-c1ccc(F)c(Cl)c1 [Example D-28, 2-[4-(3-chloro-4-fluorophenyl)-1-{5-[2-(morpholin-4-yl)ethyl]pyridin-2-yl}-5-oxo-4,5-dihydro-1H-1,2,4-triazol-3-yl]-N-(propan-2-yl)acetamide] | 10 to 100 nM
18 | CC(C)NC(=O)Cc1nn(-c2ccc(CCN3C4CCC3COC4)cn2)c(=O)n1-c1ccc(F)c(Cl)c1 [Example D-29, 2-[4-(3-chloro-4-fluorophenyl)-1-{5-[2-(3-oxa-8-azabicyclo[3.2.1]oct-8-yl)ethyl]pyridin-2-yl}-5-oxo-4,5-dihydro-1H-1,2,4-triazol-3-yl]-N-(propan-2-yl)acetamide] | 10 to 100 nM
19 | CC(C)(C)NC(=O)Cc1nn(-c2ccc(CCN3CCOCC3)cc2)c(=O)n1-c1ccc(F)c(Cl)c1 [Example D-30, N-tert-butyl-2-[4-(3-chloro-4-fluorophenyl)-1-{4-[2-(morpholin-4-yl)ethyl]phenyl}-5-oxo-4,5-dihydro-1H-1,2,4-triazol-3-yl]acetamide] | 2.8 nM
20 | CC(C)(C)NC(=O)Cc1nn(-c2ccc(CCN3C4CCC3COC4)cc2)c(=O)n1-c1ccc(F)c(Cl)c1 [Example D-31, N-tert-butyl-2-[4-(3-chloro-4-fluorophenyl)-1-{4-[2-(3-oxa-8-azabicyclo[3.2.1]oct-8-yl)ethyl]phenyl}-5-oxo-4,5-dihydro-1H-1,2,4-triazol-3-yl]acetamide] | 2.9 nM
21 | CC(C)(C)NC(=O)Cc1nn(-c2ccc(CCN3CCOCC3)cn2)c(=O)n1-c1ccc(F)c(Cl)c1 [Example D-32, N-tert-butyl-2-[4-(3-chloro-4-fluorophenyl)-1-{5-[2-(morpholin-4-yl)ethyl]pyridin-2-yl}-5-oxo-4,5-dihydro-1H-1,2,4-triazol-3-yl]acetamide] | 17 nM
22 | CC(C)(C)NC(=O)Cc1nn(-c2ccc(CCN3C4CCC3COC4)cn2)c(=O)n1-c1ccc(F)c(Cl)c1 [Example D-33, N-tert-butyl-2-[4-(3-chloro-4-fluorophenyl)-1-{5-[2-(3-oxa-8-azabicyclo[3.2.1]oct-8-yl)ethyl]pyridin-2-yl}-5-oxo-4,5-dihydro-1H-1,2,4-triazol-3-yl]acetamide] | 9.1 nM
23 | CC(C)NC(=O)Cc1nn(-c2ccc(CC(C)N3C4CCC3COC4)cn2)c(=O)n1-c1cccc(Cl)c1 [Example D-34, 2-[4-(3-chlorophenyl)-1-{5-[2-(3-oxa-8-azabicyclo[3.2.1]oct-8-yl)propyl]pyridin-2-yl}-5-oxo-4,5-dihydro-1H-1,2,4-triazol-3-yl]-N-(propan-2-yl)acetamide] | 3.3 nM
24 | CC(C)NC(=O)Cc1nn(-c2ccc(CCN3CCOCC3)cc2)c(=O)n1-c1cccc(C(F)(F)F)c1 [Example D-35, 2-(1-{4-[2-(morpholin-4-yl)ethyl]phenyl}-5-oxo-4-[3-(trifluoromethyl)phenyl]-4,5-dihydro-1H-1,2,4-triazol-3-yl)-N-(propan-2-yl)acetamide] | 18 nM
25 | CC(C)NC(=O)Cc1nn(-c2ccc(CC(C)N3C4CCC3COC4)cc2)c(=O)n1-c1ccc(F)c(Cl)c1 [Example D-36, 2-[4-(3-chloro-4-fluorophenyl)-1-{4-[2-(3-oxa-8-azabicyclo[3.2.1]oct-8-yl)propyl]phenyl}-5-oxo-4,5-dihydro-1H-1,2,4-triazol-3-yl]-N-(propan-2-yl)acetamide] | 0.61 nM
26 | COc1cc(-n2c(CC(=O)NC(C)C)nn(-c3ccc(CCN4C5CCC4COC5)cc3)c2=O)ccc1F [Example D-37, 2-[4-(4-fluoro-3-methoxyphenyl)-1-{4-[2-(3-oxa-8-azabicyclo[3.2.1]oct-8-yl)ethyl]phenyl}-5-oxo-4,5-dihydro-1H-1,2,4-triazol-3-yl]-N-(propan-2-yl)acetamide] | 12 nM
27 | COc1cc(-n2c(CC(=O)NC(C)C)nn(-c3ccc(CCN4C5CCC4COC5)cn3)c2=O)ccc1F [Example D-38, 2-[4-(4-fluoro-3-methoxyphenyl)-1-{5-[2-(3-oxa-8-azabicyclo[3.2.1]oct-8-yl)ethyl]pyridin-2-yl}-5-oxo-4,5-dihydro-1H-1,2,4-triazol-3-yl]-N-(propan-2-yl)acetamide] | 10 to 100 nM
